Laboratory results from ChEMBL document CHEMBL5393444, “Sulfonamide derivatives as ctps1 inhibitors” (2022).

Species on record: Homo sapiens
Assay: Selectivity ratio of IC50 for human CTPS2 to IC50 for human CTPS1 by RapidFire/MS analysis

First: CCOc1cncc(-c2ccc(NC(=O)C(CC)c3cccc(NS(=O)(=O)C4CC4)n3)cc2)n1 (configuration not stated)
Second: CCC(C(=O)Nc1ccc(-c2cncc(C(F)(F)F)n2)cc1)c1ccnc(NS(=O)(=O)C2CC2)n1 (configuration not stated)
The Ratio IC50 of the first is higher: 30 for the first, 2 for the second.

Going from `CC(C)(C(=O)Nc1ccc(-c2cccnc2)cc1)c1ccnc(NS(=O)(=O)C2CC2)n1` to `O=C(Cc1ccnc(NS(=O)(=O)C2CC2)n1)Nc1ccc(-c2cccnc2)cc1`, the Ratio IC50 rises from 2 to 30.

Going from `CCOc1cncc(-c2ccc(NC(=O)C(F)(CC)c3cncc(NS(=O)(=O)C4CC4)n3)nc2)n1` (stereo in doubt; form 3) to `CCOc1cncc(-c2ccc(NC(=O)C(C)(OC)c3cncc(NS(=O)(=O)C4CC4)n3)nc2)n1` (stereo in doubt; form 2), the Ratio IC50 rises from 2 to 30.

First: CCOc1cncc(-c2ccc(NC(=O)C(F)(CC)c3cncc(NS(=O)(=O)C4CC4)n3)nc2)n1 (stereo in doubt; form 1) [listing 1 of 2 here]
Second: CCOc1cncc(-c2ccc(NC(=O)C(C)(OC)c3cncc(NS(=O)(=O)C4CC4)n3)nc2)n1 (stereo in doubt; form 1)
The Ratio IC50 of the first is lower: 30 for the first, greater than 60 for the second.

`CCOc1cncc(-c2ccc(NC(=O)C(F)(CC)c3cncc(NS(=O)(=O)C4CC4)n3)nc2)n1` (stereo in doubt; form 2) and `CCOc1cncc(-c2ccc(NC(=O)C(F)(CC)c3ccnc(NS(=O)(=O)C4CC4)n3)nc2)n1` (stereo in doubt; form 3) cannot be ordered by Ratio IC50: greater than 60 for the first, greater than 60 for the second.

Compared with `CCOc1cncc(-c2ccc(NC(=O)C(C)(C)c3nc(NS(=O)(=O)C4CC4)ncc3F)cc2)n1`, `CCOc1cncc(-c2ccc(NC(=O)C(C)(C)c3nc(NS(=O)(=O)C4CC4)ncc3C)cc2)n1` is lower in Ratio IC50: 30 for the first, 2 for the second.

First: CCOc1cncc(-c2ccc(NC(=O)C3(c4ccnc(NS(=O)(=O)C5CC5)n4)CCC(O)CC3)nc2)n1 (single isomer, unassigned)
Second: CCOc1cncc(-c2ccc(NC(=O)C3(c4ccnc(NS(=O)(=O)N(C)C)n4)CCOCC3)nc2)n1
The Ratio IC50 of the first is lower: 2 for the first, greater than 60 for the second.

`CC(C)Oc1cncc(-c2ccc(C(=O)NC(C)(C)c3cncc(NS(=O)(=O)C4CC4)n3)c(F)c2)n1` and `CC(C)(NC(=O)c1ccc(-c2cncc(C(F)(F)F)n2)cc1)c1cncc(NS(=O)(=O)C2CC2)n1` are the same in Ratio IC50: 2 for the first, 2 for the second.

`CCOc1cncc(-c2ccc(NC(=O)C(C)(C)c3ccnc(NS(=O)(=O)CC)n3)cc2)n1` and `CCOc1cncc(-c2ccc(NC(=O)C(C)(C)c3ccnc(NS(C)(=O)=O)n3)nc2)n1` are the same in Ratio IC50: 30 for the first, 30 for the second.

Work on `CCOc1cncc(-c2ccc(NC(=O)C(F)(CC)c3ccnc(NS(=O)(=O)C4CC4)n3)nc2)n1` (stereo in doubt; form 1) [listing 1 of 2 here] yielded a Ratio IC50 of 30.

Each molecule was assayed against T1, CTP synthase 1 (Homo sapiens, UniProt P17812) (assay: Inhibition of C-terminal FLAG-His8-tagged full length human CTPS1 preincubated for 10 mins followed by substrate addition by ADP-Glo assay).
T1 sequence (P17812 whole entry): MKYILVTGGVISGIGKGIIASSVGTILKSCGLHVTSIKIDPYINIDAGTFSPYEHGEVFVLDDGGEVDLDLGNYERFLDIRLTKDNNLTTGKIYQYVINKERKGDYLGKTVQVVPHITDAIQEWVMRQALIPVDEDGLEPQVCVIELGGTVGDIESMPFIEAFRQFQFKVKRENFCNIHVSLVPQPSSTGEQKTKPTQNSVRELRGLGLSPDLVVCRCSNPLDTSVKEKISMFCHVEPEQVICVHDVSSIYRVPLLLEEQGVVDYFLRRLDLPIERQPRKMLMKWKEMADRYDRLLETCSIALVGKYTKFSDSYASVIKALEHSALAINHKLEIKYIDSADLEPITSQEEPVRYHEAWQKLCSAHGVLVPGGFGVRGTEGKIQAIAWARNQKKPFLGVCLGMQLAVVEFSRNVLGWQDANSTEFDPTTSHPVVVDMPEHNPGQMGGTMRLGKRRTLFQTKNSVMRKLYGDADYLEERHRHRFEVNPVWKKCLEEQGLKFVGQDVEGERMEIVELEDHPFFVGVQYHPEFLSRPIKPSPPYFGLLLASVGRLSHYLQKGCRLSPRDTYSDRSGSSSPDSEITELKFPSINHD

`CCC(C(=O)Nc1ccc(-c2cncc(OC)n2)cc1)c1ccnc(NS(=O)(=O)C2CC2)n1` (configuration not stated) and `CCC(C(=O)Nc1ccc(-c2cncc(OC(C)C)n2)cc1)c1ccnc(NS(=O)(=O)C2CC2)n1` (configuration not stated) cannot be ordered by IC50: no more than 0.1 µM for the first, no more than 0.1 µM for the second.

`CCOc1cncc(-c2ccc(NC(=O)C(CC)c3nccc(NS(=O)(=O)C4CC4)n3)nc2)n1` (configuration not stated) and `CCOc1cncc(-c2ccc(NC(=O)C(c3ccnc(NS(=O)(=O)C4CC4)n3)C(C)C)nc2)n1` (configuration not stated) cannot be ordered by IC50: no more than 0.1 µM for the first, no more than 0.1 µM for the second.

`CCOc1cncc(-c2cc(F)c(NC(=O)C(C)(C)c3ccnc(NS(=O)(=O)C4CC4)n3)c(F)c2)n1` and `CCOc1cncc(-c2cnc(NC(=O)C(C)(C)c3ccnc(NS(=O)(=O)C4CC4)n3)c(F)c2)n1` cannot be ordered by IC50: no more than 0.1 µM for the first, no more than 0.1 µM for the second.

`CCC(C(=O)Nc1ccc(-c2cncc(OCC(F)(F)F)n2)cn1)c1ccnc(NS(=O)(=O)C2CC2)n1` (configuration not stated) and `CCC(C(=O)Nc1ccc(-c2cncc(C3CC3)n2)cn1)c1ccnc(NS(=O)(=O)C2CC2)n1` (configuration not stated) cannot be ordered by IC50: no more than 0.1 µM for the first, no more than 0.1 µM for the second.

`CC(C)Oc1cncc(-c2ccc(NC(=O)C(C)(C)c3ccnc(NS(=O)(=O)C4CC4)n3)cc2)n1` and `COc1cncc(-c2ccc(NC(=O)C(C)(C)c3ccnc(NS(=O)(=O)C4CC4)n3)cc2)n1` cannot be ordered by IC50: no more than 0.1 µM for the first, no more than 0.1 µM for the second.

`CCOc1cncc(-c2ccc(NC(=O)C(C)(C)c3ccnc(NS(=O)(=O)C4CC4)n3)c(OC(F)(F)F)c2)n1` and `CCOc1cncc(-c2ccc(NC(=O)C(C)(C)c3ccnc(NS(=O)(=O)C4CC4)n3)c(OC)c2)n1` cannot be ordered by IC50: no more than 0.1 µM for the first, no more than 0.1 µM for the second.

`CC(C)(C(=O)Nc1ccc(-c2cncc(C(F)(F)F)n2)cc1)c1ccnc(NS(=O)(=O)C2CC2)n1` and `CC(C)(C(=O)Nc1ccc(-c2cncc(C(F)(F)F)n2)cn1)c1ccnc(NS(=O)(=O)C2CC2)n1` cannot be ordered by IC50: no more than 0.1 µM for the first, no more than 0.1 µM for the second.

`COc1cncc(-c2ccc(NC(=O)Cc3cccc(NS(=O)(=O)C4CC4)n3)cc2)n1` and `COc1cncc(-c2ccc(NC(=O)Cc3ccnc(NS(=O)(=O)C4CC4)n3)cc2)n1` cannot be ordered by IC50: no more than 0.1 µM for the first, no more than 0.1 µM for the second.

`CCC(NC(=O)c1ccc(-c2cncc(OC(C)C)n2)cc1)c1ccnc(NS(=O)(=O)C2CC2)n1` (configuration not stated) and `CCC(C(=O)Nc1ccc(-c2cncc(OC(C)C)n2)cc1F)c1ccnc(NS(=O)(=O)C2CC2)n1` (configuration not stated) cannot be ordered by IC50: no more than 0.1 µM for the first, no more than 0.1 µM for the second.

`CCOc1cncc(-c2ccc(NC(=O)C(c3ccnc(NS(=O)(=O)C4CC4)n3)C(C)C)c(F)c2)n1` (configuration not stated) and `CCOc1cncc(-c2ccc(NC(=O)C(F)(F)c3ccnc(NS(=O)(=O)C4CC4)n3)c(F)c2)n1` cannot be ordered by IC50: no more than 0.1 µM for the first, no more than 0.1 µM for the second.

`CCOc1cncc(-c2ccc(NC(=O)C(OC)c3cncc(NS(=O)(=O)C4CC4)n3)cc2)n1` (configuration not stated) and `CCOc1cncc(-c2ccc(NC(=O)C(OC)c3cncc(NS(=O)(=O)C4CC4)n3)nc2)n1` (configuration not stated) cannot be ordered by IC50: no more than 0.1 µM for the first, no more than 0.1 µM for the second.

`CCOc1cncc(-c2ccc(NC(=O)C3(c4ccnc(NS(=O)(=O)C5CC5)n4)CCOCC3)cc2)n1` and `CCOc1cncc(-c2ccc(NC(=O)C3(c4cccc(NS(=O)(=O)C5CC5)n4)CCOCC3)nc2)n1` cannot be ordered by IC50: no more than 0.1 µM for the first, no more than 0.1 µM for the second.

`O=C(Cc1ccnc(NS(=O)(=O)C2CC2)n1)Nc1ccc(-c2cncc(C(F)(F)F)n2)cc1F` and `O=C(Cc1ccnc(NS(=O)(=O)C2CC2)n1)Nc1ccc(-c2cncc(C(F)(F)F)n2)cc1` cannot be ordered by IC50: no more than 0.1 µM for the first, no more than 0.1 µM for the second.

`CCOc1cncc(-c2ccc(NC(=O)C(F)(CC)c3cncc(NS(=O)(=O)C4CC4)n3)nc2)n1` (stereo in doubt; form 1) [listing 2 of 2 here] and `CCOc1cncc(-c2ccc(NC(=O)C(C)(OC)c3cncc(NS(=O)(=O)C4CC4)n3)nc2)n1` (configuration not stated) cannot be ordered by IC50: no more than 0.1 µM for the first, no more than 0.1 µM for the second.

`CCC(C(=O)Nc1ccc(-c2cncc(C3CC3)n2)cc1F)c1ccnc(NS(=O)(=O)C2CC2)n1` (configuration not stated) and `CCC(C(=O)Nc1ccc(-c2cncc(C(F)(F)F)n2)cc1F)c1ccnc(NS(=O)(=O)C2CC2)n1` (configuration not stated) cannot be ordered by IC50: no more than 0.1 µM for the first, no more than 0.1 µM for the second.

`CCOc1cncc(-c2ccc(NC(=O)C3(c4ccnc(NS(=O)(=O)C5CC5)n4)CCC(N(C)C)CC3)nc2)n1` (stereo in doubt; form 1) and `CCOc1cncc(-c2ccc(NC(=O)C3(c4ccnc(NS(=O)(=O)C5CC5)n4)CCC(O)CC3)nc2)n1` (stereo in doubt) cannot be ordered by IC50: no more than 0.1 µM for the first, no more than 0.1 µM for the second.

`CCOc1cncc(-c2ccc(NC(=O)C(F)(CC)c3ccnc(NS(=O)(=O)C4CC4)n3)nc2)n1` (stereo in doubt; form 1) [listing 2 of 2 here] and `CCOc1cncc(-c2ccc(NC(=O)C(F)(c3ccnc(NS(=O)(=O)C4CC4)n3)C(C)C)nc2)n1` (configuration not stated) cannot be ordered by IC50: no more than 0.1 µM for the first, no more than 0.1 µM for the second.

`O=C(Cc1ccnc(NS(=O)(=O)C2CC2)n1)Nc1ccc(-c2cncc(OCC(F)(F)F)n2)cc1` and `CCOc1cncc(-c2ccc(NC(=O)C(CC)(CC)c3ccnc(NS(=O)(=O)C4CC4)n3)cc2)n1` cannot be ordered by IC50: no more than 0.1 µM for the first, no more than 0.1 µM for the second.

`CCOc1cncc(-c2ccc(C(=O)NC(CC)c3cncc(NS(=O)(=O)C4CC4)n3)c(F)c2)n1` (configuration not stated) and `CCOc1cncc(-c2cnc(NC(=O)C(CCOC)c3ccnc(NS(=O)(=O)C4CC4)n3)c(F)c2)n1` (configuration not stated) cannot be ordered by IC50: no more than 0.1 µM for the first, no more than 0.1 µM for the second.

Going from `Cc1ncc(-c2ccc(NC(=O)C(C)(C)c3ccnc(NS(C)(=O)=O)n3)c(C)c2)cn1` to `CCOc1cncc(-c2ccc(NC(=O)C(C)(C)c3ccnc(NS(C)(=O)=O)n3)cc2)n1`, the IC50 falls from no less than 1 µM to no more than 0.1 µM. The second is the more potent here.

First: CC(C)(C(=O)Nc1ccc(-c2cncc(OC(F)F)c2)cc1)c1ccnc(NS(=O)(=O)C2CC2)n1
Second: CCOc1cccc(-c2ccc(NC(=O)C(C)(C)c3ccnc(NS(=O)(=O)C4CC4)n3)cc2)c1
The IC50 of the first is lower: no more than 0.1 µM for the first, 10 µM for the second.

`CCOc1cncc(-c2ccc(NC(=O)C3(c4ccnc(NS(=O)(=O)C5(C#N)CC5)n4)CCOCC3)nc2)n1` and `CCOc1cncc(-c2ccc(NC(=O)C3(c4ccnc(NS(=O)(=O)C5CC5)n4)CC4(C3)OCCO4)nc2)n1` cannot be ordered by IC50: no more than 0.1 µM for the first, no more than 0.1 µM for the second.

`CCOc1cncc(-c2ccc(NC(=O)C(C)(C)c3ccnc(NS(=O)(=O)C4CC4)n3)c(Cl)c2)n1` and `CCOc1cncc(-c2ccc(NC(=O)C(C)(C)c3ccnc(NS(=O)(=O)C4CC4)n3)cn2)n1` cannot be ordered by IC50: no more than 0.1 µM for the first, no more than 0.1 µM for the second.

`CCC(F)(C(=O)Nc1ccc(-c2cncc(C3CC3)n2)cn1)c1ccnc(NS(=O)(=O)C2CC2)n1` (configuration not stated) and `CCC(F)(C(=O)Nc1ccc(-c2cncc(Cl)c2)cn1)c1ccnc(NS(=O)(=O)C2CC2)n1` (configuration not stated) cannot be ordered by IC50: no more than 0.1 µM for the first, no more than 0.1 µM for the second.

`CCS(=O)(=O)Nc1nccc(C(C)(C)C(=O)Nc2ccc(-c3cncc(OC)n3)cc2F)n1` and `CC(C)(C(=O)Nc1ccc(-c2cncc(C(F)(F)F)n2)cc1F)c1ccnc(NS(=O)(=O)C2CC2)n1` cannot be ordered by IC50: no more than 1 µM for the first, no more than 0.1 µM for the second.

`CCOc1cncc(-c2ccc(NC(=O)C3(c4ccnc(NS(=O)(=O)C5CC5)n4)CCC(OC)CC3)nc2)n1` (configuration not stated) and `CC(C)(C(=O)Nc1ccc(-c2cncc(OC3CC3)n2)cn1)c1ccnc(NS(=O)(=O)C2CC2)n1` cannot be ordered by IC50: no more than 0.1 µM for the first, no more than 0.1 µM for the second.

`CCC(C(=O)Nc1ccc(-c2cncc(Cl)c2)cn1)c1ccnc(NS(=O)(=O)C2CC2)n1` (configuration not stated) showed an IC50 of no more than 0.1 µM.
